Five molecules from article PMC12413083, “Secondary metabolites isolated from Fernandoa adenophylla (Wall. ex G.Don) steenis as multitarget inhibitors of cholinesterases for the treatment of Alzheimer’s Disease, followed by molecular docking studies” (PLOS One, 2025) can be followed below.

The target of experiment [1] is T1, Electrophorus electricus acetylcholinesterase (eeAChE) (Electrophorus electricus, UniProt O42275).
T1 construct: purchased Sigma-Aldrich C3389
Put plainly: biochemical. The settings on record: for Selectivity Index (SI): SI = IC50 of BChE/IC50 of AChE. Here is the method:
(§1) Enzymes from Electrophorus electricus (eeAChE) (Sigma-Aldrich, Cat. No. C3389) and equine serum (Equus caballus) BuChE (eqBuChE) […]. Stock solutions of the test compounds were prepared in potassium phosphate buffer (0.1 M, pH 8.0). The reaction mixture consisted of Ellman’s reagent (5,5′-dithiobis (2-nitrobenzoic acid), DTNB), enzyme (0.03 U/mL of eeAChE or eqBuChE), and the test compound. Pre-incubation was performed at 30°C for 10 minutes, followed by the addition of 1 mM acetylthiocholine iodide (ATCI) or butyrylthiocholine iodide (BTCI) as substrates. The reaction mixture was further incubated for 15 minutes. […] All assays were conducted in triplicate. IC50 values were calculated by nonlinear regression of compound concentration versus percentage inhibition.
(§2) All experiments were performed in triplicate, and the results are expressed as SEM. IC50 values were determined using nonlinear regression analysis (GraphPad Prism). All statistical analyses were performed using GraphPad Prism version 9.5.1 (GraphPad Software, San Diego, CA, USA).

The target in experiment [2] is T2, equine serum butyrylcholinesterase (eqBuChE) (Equus caballus, UniProt P81908).
T2 construct: equine serum (Equus caballus) BuChE (eqBuChE); purchased Sigma-Aldrich C3389; host or cells: equine serum
Put plainly: biochemical. Here is the method:
as §1, §2

Setting [3] is: Ellman's method, mean ± SEM, n = 3, read-out: IC50 (μM) ± SEM (eeAChE).
[4] abbreviates: Ellman's method, mean ± SEM, n = 3, read-out: IC50 (μM) ± SEM eqBuChE.

Usually IC50 stands for the concentration at which inhibition is half-maximal.

Like-named read-outs stand apart in the source and are kept apart here.

T2 sequence (P81908 whole entry): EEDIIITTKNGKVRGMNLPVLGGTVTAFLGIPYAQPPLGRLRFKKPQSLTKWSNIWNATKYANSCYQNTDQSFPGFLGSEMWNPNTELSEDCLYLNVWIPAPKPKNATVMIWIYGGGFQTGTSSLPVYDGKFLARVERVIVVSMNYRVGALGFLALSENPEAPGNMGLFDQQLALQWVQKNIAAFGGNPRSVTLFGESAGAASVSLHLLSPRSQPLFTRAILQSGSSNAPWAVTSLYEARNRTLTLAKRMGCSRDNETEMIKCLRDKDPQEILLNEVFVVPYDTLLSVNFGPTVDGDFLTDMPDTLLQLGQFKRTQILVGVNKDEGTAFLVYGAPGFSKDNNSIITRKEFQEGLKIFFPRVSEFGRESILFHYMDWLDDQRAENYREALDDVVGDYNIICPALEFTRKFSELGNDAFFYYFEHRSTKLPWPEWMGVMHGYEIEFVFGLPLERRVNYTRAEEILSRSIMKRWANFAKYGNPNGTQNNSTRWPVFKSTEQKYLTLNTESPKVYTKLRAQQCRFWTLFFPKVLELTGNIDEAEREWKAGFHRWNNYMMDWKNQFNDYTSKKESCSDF
T1 sequence (O42275 24-633): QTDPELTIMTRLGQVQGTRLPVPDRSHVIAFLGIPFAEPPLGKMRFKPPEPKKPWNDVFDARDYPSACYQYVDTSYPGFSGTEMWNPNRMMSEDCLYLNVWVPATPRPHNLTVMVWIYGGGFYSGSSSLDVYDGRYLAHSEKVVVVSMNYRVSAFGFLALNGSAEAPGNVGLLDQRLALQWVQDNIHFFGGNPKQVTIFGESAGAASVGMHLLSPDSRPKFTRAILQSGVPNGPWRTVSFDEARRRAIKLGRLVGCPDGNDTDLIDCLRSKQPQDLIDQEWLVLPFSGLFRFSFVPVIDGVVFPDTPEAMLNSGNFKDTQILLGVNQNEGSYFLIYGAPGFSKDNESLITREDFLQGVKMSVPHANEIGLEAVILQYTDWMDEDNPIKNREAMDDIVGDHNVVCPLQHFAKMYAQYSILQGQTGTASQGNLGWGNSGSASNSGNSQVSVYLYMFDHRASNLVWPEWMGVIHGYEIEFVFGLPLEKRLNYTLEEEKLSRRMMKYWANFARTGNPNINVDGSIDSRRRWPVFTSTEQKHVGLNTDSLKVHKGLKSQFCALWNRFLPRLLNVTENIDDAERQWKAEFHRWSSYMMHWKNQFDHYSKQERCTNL

With `CC(C)=CCC1=C(O)C(=O)c2ccccc2C1=O` [Lapachol (1), Lapachol], the IC50 is 5.04 ± 0.24 µM in experiment [1] and 68.3 ± 1.06 µM in experiment [2]. Also, in experiment [1], the “Selectivity Index (SI)” value is 13.6.

For `COC(=O)C1(O)c2ccccc2C(=O)C1(O)CC=C(C)C` (stereo not drawn) [Indanone derivative (5)], in experiment [1], the midpoint of inhibition, the IC50, lay at 53.2 ± 1.29 µM and the “Selectivity Index (SI)” value stood at 0.45. This molecule also gave an IC50 in experiment [2] of 24.2 ± 1.04 µM.

Turning to `CC1(C)C=CC2=C(O1)C(=O)c1ccccc1C2=O` [Dehydro-α-lapachone (4), Dehydro-α-lapachone], the IC50 turned out to be 2.64 ± 0.08 µM in experiment [1] (setting [3]) and 55.6 ± 1.41 µM in experiment [2] (setting [4]). In addition, the “Selectivity Index (SI)” value in experiment [1] stood at 21.1.

Consider `CC1(C)CCC2=C(O1)C(=O)c1ccccc1C2=O` [α-Lapachone (2), α-Lapachone], for which the results for the IC50 in experiment [1] (setting [3]) and in experiment [2] (setting [4]) were 11 ± 0.97 µM and 39.1 ± 0.97 µM, respectively. Moreover, the “Selectivity Index (SI)” value in experiment [1] is 3.6.

Turning to `CC(C)=C(C)C1CC2(C)OC3=C(C(=O)c4ccccc4C3=O)C3C2C12C(=O)c1ccccc1C3(O)C2=O` (stereo not drawn) [Peshawaraquinone (3), Peshawaraquinone], the results for the IC50 in experiment [1] (setting [3]) and in experiment [2] (setting [4]) were 0.9 ± 0.04 µM and 8.39 ± 0.14 µM, respectively. Besides, in experiment [1], the “Selectivity Index (SI)” value was 9.3.
